From a melting point compilation (Tetko et al.)

COc1cc(C=CC(=O)O)cc(OC)c1OC
melting point: 127 °C

OCC1OC(OCC2OC(O)C(O)C(O)C2O)C(O)C(O)C1O (stereo not given)
melting point: 86 °C

CCOC(=O)c1cc2cccc(OC)c2o1
melting point: 85 to 90 °C

CC(=O)Nc1ccc(C)cc1Br
melting point: 118 °C

CS(=O)(=O)c1cc(Cl)c(O)c(Cl)c1
melting point: 223 to 224 °C

O=Cc1ccccc1Sc1ccc(Cl)cc1
melting point: 73 °C

CC(C)=CCCC(C)C1CCC2(C)C3=C(CCC12C)C1(C)CCC(O)C(C)(C)C1CC3 (stereo not given)
melting point: 140 °C

NC(=S)c1cnccc1C(F)(F)F
melting point: 153 to 156 °C

Cn1ccc2cc(S(=O)(=O)Cl)ccc21
melting point: 79 to 80 °C

COC(=O)CCCCCCC(=O)OC
melting point: -3.1 °C

Cn1ccc(=O)[nH]c1=O
melting point: 237 °C

CC1CN1 (stereo not given)
melting point: -65 °C

NS(=O)(=O)c1ccc(Cl)s1
melting point: 117 °C

COC(=O)C1Cc2c([nH]c3ccccc23)C(C)(C)N1 (stereo not given)
melting point: 202 to 204 °C

O=C(Oc1ccc2ccccc2c1-c1c(OC(=O)c2ccccc2)ccc2ccccc12)c1ccccc1
melting point: 163 to 166 °C

CCOC(=O)CCc1ccc(O)cc1
melting point: 40 to 42 °C

O=[N+]([O-])c1cccnc1NC1CC1
melting point: 61 to 63 °C

Cc1cccc(N)c1N
melting point: 63.5 °C

BrCc1ccc(-c2ccsc2)cc1
melting point: 107 to 109 °C

COc1ccc(C(=CC(=O)N2CCOCC2)c2ccc(Cl)cc2)cc1OC
melting point: 148 °C

CC1(C)OC2C(=O)OC(CO)C2O1 (stereo not given)
melting point: 136 to 140 °C

C=CC(=O)NC(O)C(O)NC(=O)C=C (stereo not given)
melting point: 142 °C

CC1(c2ccccc2)CC(C(=NO)c2cc3cc(Br)ccc3o2)C1 (stereo not given)
melting point: 134 to 135 °C

CC1CCC(C)(COC(=S)Nc2ccccc2)C1(C)C (stereo not given)
melting point: 101 °C

C=CCc1cc(Cl)ccc1O
melting point: 48 °C

Cc1cc(Sc2ccc(C(=O)O)cc2[N+](=O)[O-])c(C)cc1Cl
melting point: 243 to 248 °C

ON=Cc1ccccc1Cl
melting point: 72 to 77 °C

Nc1ccc(Oc2ccccc2)nc1
melting point: 71 to 72 °C

O=C(O)c1ccc(C(=O)O)c(C(=O)O)c1
melting point: 231 °C

CC(C)(C)OC(=O)NCc1ccc(CO)cc1
melting point: 98 to 99 °C

COc1ccccc1C(=O)Oc1ccc(C(=O)/C=C/c2ccc(N(C)C)cc2)cc1
melting point: 99 °C

O=C(O)C1CC(=O)N(Cc2cccs2)C1 (stereo not given)
melting point: 144 to 146 °C

Cn1c(=O)c(C2=NNC(=O)C2=CC=Cc2ccccc2)c(O)c2ccccc21
melting point: 238 °C

c1ccc2c(C3CCNCC3)c[nH]c2c1
melting point: 222 to 223 °C

CC(=O)OCC1OC=CC(OC(C)=O)C1OC(C)=O (stereo not given)
melting point: 54 °C

CC(C)(C(=O)O)C(CC(=O)O)c1ccccc1 (stereo not given)
melting point: 171 °C

CON=C(C)c1cccc(Oc2nc(OC)cc(OC)n2)c1C(=O)OC
melting point: 107 °C

COC1C(C2COC3(CCCCC3)O2)OC2OC3(CCCCC3)OC21 (stereo not given)
melting point: 35 to 38 °C

O=Cc1cccc(Br)n1
melting point: 81 °C

CC1(C)OCC(CO)O1 (stereo not given)
melting point: -27 °C

O=C(O)c1ccc(-c2ccsc2)cc1
melting point: 282 to 283 °C

O=C1CC2C(CC(OC(=O)c3ccc(-c4ccccc4)cc3)C2CO)O1 (single isomer, unassigned; (-))
melting point: 128 to 134 °C

CCSc1nc(N)c(Br)c(O)n1
melting point: 300 °C

N[C@H](C(=O)O)c1ccc(F)cc1
melting point: 300 °C

COc1ccc(C=C2C(=O)NC(=O)NC2=O)cc1OC
melting point: 265 °C

O=C(O)c1ccc(Sc2ccc(Cl)cc2)c([N+](=O)[O-])c1
melting point: 217 to 220 °C

NNC(=O)CC(=O)NN
melting point: 154 °C

C/C(=N\O)c1cc(C(C)(C)C)c(O)c(C(C)(C)C)c1
melting point: 200 to 201 °C

O=S(=O)(N(c1ccccn1)S(=O)(=O)C(F)(F)F)C(F)(F)F
melting point: 39 °C

COCCN1CCCNCC1
melting point: 67 °C

CSc1ncnc2c1ncn2C1OC(CO)C(O)C1O (stereo not given)
melting point: 164 °C

OCc1cc(-c2cccs2)on1
melting point: 62 to 64 °C

Cc1nc(-c2ccccc2)ncc1C(=O)NN
melting point: 185 to 187 °C

OCC1OC(n2cnc3c(NCc4ccccc4)ncnc32)C(O)C1O (stereo not given)
melting point: 184 to 186 °C

NNC(=S)NCCN1CCOCC1
melting point: 166 °C

Clc1ccc(I)cc1Cl
melting point: 30 °C

CC1CCC(C)(COC(=O)c2ccc(N)cc2)C1(C)C (stereo not given)
melting point: 74 °C

Cc1n[nH]c(C)c1N
melting point: 192 °C

COC(=O)CC[C@H](N)C(=O)O
melting point: 182 °C

Cc1cc(C)n(N=Cc2ccc(F)cc2)c(=O)c1C#N
melting point: 186 to 188 °C

COc1ccc(-c2onc(C(=O)c3ccco3)c2S(=O)(=O)c2ccccc2)cc1
melting point: 150 °C

O=S(=O)(Cl)c1cccc2ccccc12
melting point: 68 °C

Nc1ccc(N=Nc2ccc(N)cc2)cc1
melting point: 250 °C

CCCCCCCCCCCCCCCC(C)O (stereo not given)
melting point: 54 °C

CC(C)(C)OC(=O)N1CCC(Oc2ccc(C(=O)O)cc2)CC1
melting point: 175 to 177 °C

CNC(=O)Oc1ccc(C)c(C)c1Cl
melting point: 124 °C

O=C(c1c[nH]c2ccccc12)C(F)(F)F
melting point: 211 to 214 °C

Cc1ccc(NC(=O)CC2C(=O)C3(C)CCC2C3(C)C)cc1 (stereo not given)
melting point: 158 °C

FC(F)(F)c1ccc(-c2nc(CCl)no2)cc1
melting point: 48 to 50 °C

CC(C)(C)OC(=O)N1CCCC(O)C1 (stereo not given)
melting point: 68 °C

O=C1c2ccccc2CC2CCc3ccccc3N12 (stereo not given)
melting point: 130 °C

FC(F)(F)c1ccc(N=C=S)cc1
melting point: 41 to 43 °C

Cc1cc2ccccc2cc1CCl
melting point: 65 °C

COc1cc(C)ccc1S(=O)(=O)Cl
melting point: 87 °C

Cc1cc(C)c(P(c2c(C)cc(C)cc2C)c2c(C)cc(C)cc2C)c(C)c1
melting point: 187 °C

COc1cc(/C=C/C(=O)O)ccc1O
melting point: 173 °C

c1cc2c3c(ccc2c2c1CC2)CC3
melting point: 163 °C

COc1ccc(P2(=S)Nn3c(nnc3C(F)(F)F)S2)cc1 (stereo not given)
melting point: 211 °C

CC1CC(C)(C)CC(OOC(C)(C)C)(OOC(C)(C)C)C1 (stereo not given)
melting point: -20 °C

CC12CCC3C(CCC45OC4C(=O)C=CC35O)C1CCC2=O (stereo not given)
melting point: 201 to 203 °C

CC1OC(=O)C2CC3CCCCC3C(C=CC3CCCC(C)N3C)C12 (single isomer, unassigned; (+))
melting point: 130 to 136 °C

O=C(O)C1CCC(c2ccc(Cl)cc2)CC1 (stereo not given)
melting point: 250 to 255 °C

OCCCN1CCNCC1
melting point: 50 °C

O=c1c(Cl)c(Cl)cnn1-c1ccc(F)c(Cl)c1
melting point: 201 to 203 °C

Cc1cc(C(=O)O)cc(C)c1OCc1ccccc1
melting point: 159 °C

Cc1c(S(=O)(=O)Cl)cnn1-c1ccccc1
melting point: 57 °C

COC(=O)c1ccc(C(=O)O)cc1[N+](=O)[O-]
melting point: 175 °C

O=C(O)Cc1ccccc1C(=O)O
melting point: 178 to 182 °C

CCOC(=O)c1c(-c2ccc(Cl)cc2)csc1N
melting point: 111 to 112 °C

CC1=NNC(=O)N(N=Cc2cccnc2)C1
melting point: 217 °C

CC1=C(C)C(C(C)C)C=C1Cc1ccccc1 (stereo not given)
melting point: 54 °C

O=C(O)c1cc2ccsc2s1
melting point: 236 °C

N#Cc1ccc(F)cn1
melting point: 43 °C

O=Cc1ccc(-c2cccnc2)cc1
melting point: 55 °C

N#Cc1ccc(S(N)(=O)=O)cc1
melting point: 170 °C

CCCCCCC(O)C1C2=C(CC(C(O)C3CC=CC(=O)O3)CC3=C(C(=O)OC3=O)C1O)C(=O)OC2=O (stereo not given)
melting point: 170 °C

C[C@H]([C@@H](O)c1ccccc1)N1CCCC1
melting point: 45 °C

Nc1ccccc1OC1CCOCC1
melting point: 58 to 61 °C

CCCC(C)(COC(N)=O)COC(=O)NC(C)C (stereo not given)
melting point: 92 °C

COc1ccc(-c2ccc(S(=O)(=O)N3CCCC3C(=O)O)cc2)cc1 (stereo not given)
melting point: 154 °C

CC1=CC(=O)CC(C)(C)C1=O
melting point: 26 to 28 °C

CCCCOC(=O)CC(CC(=O)OCCCC)(OC(C)=O)C(=O)OCCCC
melting point: -59 °C

CC(=O)Nc1cccc(C=CC(=O)c2ccccc2)c1
melting point: 104 °C

Clc1ccc(-c2cc(Cl)c(Cl)c(Cl)c2Cl)cc1
melting point: 98 °C

CCOC(CNC(=O)C(N)=O)OCC
melting point: 138 to 140 °C

C=CC1(C(C)CCC)C(=O)NC(=O)NC1=O (stereo not given)
melting point: 90 °C

CCOC(=O)c1ccc(OC(C)=O)cc1
melting point: 34 °C

C/C(=N/Nc1ccccc1)C1=Cc2ccccc2C1
melting point: 225 °C

O=C(O)c1cc(F)c(Cl)cc1Cl
melting point: 141 to 144 °C

NNc1ccc(Br)cc1
melting point: 108 °C

Cc1ccc(O)c(CO)n1
melting point: 157 to 159 °C

O=C1/C(=N\Nc2cc(-c3ccccc3)n[nH]2)C(C(F)(F)F)=NN1c1ccccc1
melting point: 280 °C

O=C(O)CCc1cccc(Br)c1
melting point: 76 to 78 °C

CC(C)OC=O
melting point: -80 °C

O=CNCC(=O)O
melting point: 149 °C

COc1cc(OC)c(C)c(OC)c1
melting point: 28 °C

CCCC(O)C(=O)O (stereo not given)
melting point: 34 °C

O=S(=O)(Cl)c1sc(Cl)cc1Br
melting point: 34 to 36 °C

N#Cc1c(-c2ccc(F)cc2)c(C#N)c(=O)n(N)c1N
melting point: 304 °C

C[C@@]12C=CC(=O)N1[C@@H](c1ccccc1)CO2
melting point: 88 to 92 °C

Clc1cccc2ccccc12
melting point: -2.5 °C

CCCCCCCC(C)=O
melting point: -7.5 °C

CC(=O)Oc1ccc(Cl)cc1
melting point: 9 °C

CCC12CCCN3CCc4c(n(c5ccccc45)C(=O)C1)C32 (single isomer, unassigned; (-))
melting point: 173 to 177 °C

Nc1ccc(C(=O)O)nc1
melting point: 218 °C

CC(C)(C)OC(=O)C(C(=O)Cc1ccccc1)c1ccccc1 (stereo not given)
melting point: 82.2 to 83.5 °C

CC(=O)C[C@@]1(O)C(=O)c2ccccc2-c2ccccc21
melting point: 66.8 °C

COc1cccc2cc(C(=NO)c3cc4cccc(OC)c4o3)oc12
melting point: 214 to 215 °C

Nc1ccc(CC(=O)c2ccc(N)cc2)cc1
melting point: 145 °C

CCCCCCCCCCCCCC1CCCCC1
melting point: 18.5 °C
